Assay [1] concerns CD46 cell surface expression on RPMI8226 cells. Put plainly: CD46 cell surface expression on RPMI8226 cells by FACS / flow cytometry. The class given is cell-based. As to conditions: for CD46 cell surface expression (MFI, flow cytometry): RPMI8226, 7 days 37° C.; for CD46 upregulation on RPMI8226 cells: 7-day exposure to varying concentrations, FACS on day-7; for CD46 expression (FACS): RPMI8226 cells treated with IMiDs for 3 and 10 days. The method, then:
Example 1: CD46 upregulation by exposure to pomalidomide and lenalidomide (FIGS. 1-2). The effect of pomalidomide and lenalidomide exposure to multiple myeloma (RPMI8226) cells was studied. RPMI8226 cells were treated with IMiDs (Pomalidomide and Lenalidomide) for 3 and 10 days (FIG. 1). CD46 expression was analyzed by FACS. CD38 was also measured as a reference. IMiDs-induced cell surface upregulation was observed only to selective antigens, e.g., CD46 but not CD38.
FACS was performed on day-7. […] FACS was performed on day-14.
FIG. 6: The multiple myeloma cell line RPMI8226 was incubated with 10 μM pomalidamide (pom) for 14 days, washed, and further incubated with 10 nM dexamethasone (dex) for 7 days. Cell surface CD46 expression was assessed by flow cytometry. MFI: median fluorescence intensity. Multiple group comparison was performed using One-way ANOVA. ** p<0.01; ****p<0.0001.
Methods: RMPI8226 cells were exposed to varying concentrations of the Stat3 inhibitor C188-9 and the glucocorticoid receptor inhibitor mifepristone for 7 days at 37° C. in culture media, and cell surface CD46 expression is detected by flow cytometry using the anti-CD46 antibody YS5 followed by AlexaFluo-617 labeled anti-human Fc secondary antibody. MFI (median fluorescence intensity) was recorded and analyzed by One-way ANOVA.
For orientation: Flow cytometry measures light scatter and fluorescence of single cells or particles in a stream.

Assay [2] concerns the target T1, CD46 (human, UniProt P15529 35-392).
T1 construct: whole, on cells; also called cell surface CD46
T1 sequence (looked up): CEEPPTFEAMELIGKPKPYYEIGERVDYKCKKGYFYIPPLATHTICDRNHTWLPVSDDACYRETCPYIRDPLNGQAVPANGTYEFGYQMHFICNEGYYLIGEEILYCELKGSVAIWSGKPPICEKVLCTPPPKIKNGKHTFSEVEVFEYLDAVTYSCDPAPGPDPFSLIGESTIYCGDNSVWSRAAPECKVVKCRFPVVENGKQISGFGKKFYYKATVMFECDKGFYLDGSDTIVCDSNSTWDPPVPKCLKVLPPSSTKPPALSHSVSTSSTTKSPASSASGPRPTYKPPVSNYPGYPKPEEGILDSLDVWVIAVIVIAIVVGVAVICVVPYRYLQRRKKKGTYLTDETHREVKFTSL
Put plainly: flow cytometry on RPMI8226 cells with a labelled anti-human Fc secondary antibody. The procedure: MFI (median fluorescence intensity) was recorded and analyzed by One-way ANOVA.

Five molecules from patent US20240101699A1, “MODULATION OF CD46 CELL SURFACE EXPRESSION AND THERAPEUTIC USE THEREOF” (The Regents of the University of California, priority 2021, published 2024) can be followed below.

`COc1ccc(S(=O)(=O)Nc2cc(-c3c(O)ccc4ccccc34)c(O)c3ccccc23)cc1` [C188-9, N-(1′, 2-Dihydroxy-1,2′-binaphthalen-4′-yl)-4-methoxybenzenesulfonamide]: the “CD46 cell surface expression (MFI, flow cytometry)” value is “inhibits” in assay [1] (high concentrations (50 μM)); “stimulates” in assay [1] (low/mid concentrations (10 and 20 μM)).

Consider `Nc1cccc2c1CN(C1CCC(=O)NC1=O)C2=O` (stereo not drawn) [lenalidomide], for which, in assay [1], the “CD46 upregulation on RPMI8226 cells” value is “upregulation” and the “CD46 expression (FACS)” value is given as “upregulation”. Turning to `CC#C[C@]1(O)CC[C@H]2[C@@H]3CCC4=CC(=O)CCC4=C3[C@@H](c3ccc(N(C)C)cc3)C[C@@]21C` [mifepristone], the “CD46 cell surface expression (MFI, flow cytometry)” value in assay [1] (mifepristone at high concentrations (50 μM)) is “inhibits”. `Nc1cccc2c1C(=O)N(C1CCC(=O)NC1=O)C2=O` (stereo not drawn) [pomalidomide]: in assay [1], the “CD46 upregulation on RPMI8226 cells” value is “upregulation” and the “CD46 expression (FACS)” value is on record as “upregulation”. In addition, in assay [1] (prior exposure for a short period (7-10 days)), the “CD46 upregulation on multiple myeloma cell surface” value is “rather persistent CD46 upregulation”.

B1: YS5 (antibody, human IgG1, lambda, V domains shown)
VH: QVQLVQSGGGVVQPGRSLRLACAASGLTVNNYAMHWVRQAPGKGLEWVAVISYDGNNKYYADSVKGRFTISRDNSKNTLYLQMNSLRAEDTAVYYCAKGGGYFDLWGRGTLVTVSS
VL: QSVLTQPPSVSGAPGQRVTISCTGSSSNIGAGYDVHWYQQLPGTAPKLLIYGNNNRPSGVPDRFSGSKSGTSASLAITGLQAEDEADYYCSSYTSGTWLFGGGTKLTVLG
notes: The format used in the assay is not otherwise stated; also called YS5FL; anti-CD46 antibody YS5
With B1, the binding result in assay [2] is on record as “binds”.
